This is an account of results in patent publication US20260174749A1, “COMBINATION THERAPY WITH SUBSTITUTED 3-((3-AMINOPHENYL)AMINO)PIPERIDINE-2,6- DIONE COMPOUNDS” (Bristol-Myers Squibb Company, priority 2022, published 2026).

Holding throughout (assay type): cell-based
Holding throughout (conditions): second agent in combination with Compound I, 7 days; for Synergy region (synergy score): Bliss/HSA excess

In one experiment the test system is VCaP cells. The experiment in a line: CTG proliferation assay, in-vitro combination screen, VCaP. Also noted: key to Synergy excess / Additivity score: area between experimental and reference (Bliss/HSA) response surfaces. As to the method:
(§1) Three prostate cancer cell lines LNCAP, VCAP, and 22RV1 were used in this screen. Briefly, LNCaP cells were cultured in RPMI medium supplemented with 10% FBS, 1% penicillin/streptomycin, 10 mM HEPES, 1 mM sodium pyruvate, and 1.5 g/L sodium bicarbonate. […] PC3 cells were cultured in F12K medium supplemented with 10% FBS and 1% penicillin/streptomycin. 22RV1 cells were cultured in RPMI1640 medium supplemented with 10% FBS and 1% penicillin/streptomycin. […] VCaP cells were cultured in DMEM medium supplemented with 10% FBS, 1% penicillin/streptomycin 1 mM sodium pyruvate, 1.5 g/L sodium bicarbonate on high bind treated tissue culture flasks (Corning CellBIND) to increase cell surface attachment. […] The combination plates seeded with cells were then incubated for 7 days at 37° C. and 5% CO2. Cell viability assays were then performed on the plates using Promega CellTiter-Glo (CTG) Luminescent Cell Viability Assay kit and following the manufacturer's protocol. 20 μL of CTG reagent was added to each well of the 384 well plate, and plates were then incubated for 45 minutes before measuring the […] using PerkinElmer EnVision Plate Reader.
(§2) Synergy is calculated by Bliss and HSA excess scores. Bliss and HSA excess scores are computed by subtracting the area under the experimental response surface to the areas under the corresponding reference model surface. A negative HSA excess score indicates antagonism, while a positive HSA excess indicates additivity and synergy is detected when also the Bliss excess score is positive. Replicates are integrated by fitting individual dose response curves. Statistical analysis is performed by first estimating experimental noise and goodness-of-fit values for each individual combination. These values are used to compute Z-scores for the observed effects. Z-scores are integrated across the combination matrix where the deviation from the model is consistent over adjacent doses and a p-value is computed.

For the next experiment, the system named is LNCaP cells. As to the kind of experiment: CTG proliferation assay, in-vitro combination screen, LNCaP. Also on record: key to Synergy excess: experimental response-surface area minus reference-model area (Bliss/HSA); Maximum synergy: scale not given here. As to the method:
Three prostate cancer cell lines LNCAP, VCAP, and 22RV1 were used in this screen. Briefly, LNCaP cells were cultured in RPMI medium supplemented with 10% FBS, 1% penicillin/streptomycin, 10 mM HEPES, 1 mM sodium pyruvate, and 1.5 g/L sodium bicarbonate. LNCaP cells were seeded at a density of 2000 cells/well on 384 black assay plates printed with our different compound combinations of interest printed on the plates. PC3 cells were cultured in F12K medium supplemented with 10% FBS and 1% penicillin/streptomycin. 22RV1 cells were cultured in RPMI1640 medium supplemented with 10% FBS and 1% penicillin/streptomycin. 22RV1 cells were seeded at a density of 2000 cells/well on 384 black assay plates printed with our different compound combinations of interest printed on the plates. VCaP cells were cultured in DMEM medium supplemented with 10% FBS, 1% penicillin/streptomycin 1 mM sodium pyruvate, 1.5 g/L sodium bicarbonate on high bind treated tissue culture flasks (Corning CellBIND) to increase cell surface attachment. VCaP cells were seeded at a density of 3000 cells/well on high-bind 384 black assay plates printed with our different compound combinations of interest printed on the plates. The combination plates seeded with cells were then incubated for 7 days at 37° C. and 5% CO2. Cell viability assays were then performed on the plates using Promega CellTiter-Glo (CTG) Luminescent Cell Viability Assay kit and following the manufacturer's protocol. 20 μL of CTG reagent was added to each well of the 384 well plate, and plates were then incubated for 45 minutes before measuring the […] using PerkinElmer EnVision Plate Reader.
as §2

The next experiment concerns 22RV1 cells. As to the kind of experiment: CTG proliferation assay, in-vitro combination screen, 22RV1. Also on record: key to Synergy region (synergy score) / Additivity score / Antagonism score: area between experimental and reference (Bliss/HSA) response surfaces. As to the method: as §1, §2

For `NC1(C(=O)N[C@@H](CCO)c2ccc(Cl)cc2)CCN(c2nc[nH]c3nccc2-3)CC1` [AZD5363, capivasertib], in the experiment on VCaP cells, the Additivity score came out at 7.1, the Antagonism score is listed as 0, the Maximum synergy was 13 and the Synergy excess is reported as 6.2. Further, the “Synergy region (synergy score)” value in the experiment with VCaP cells came to 2. In addition, in the experiment with LNCaP cells, the Additivity score worked out at 16, the Antagonism score came out at 0, the Maximum synergy is 26 and the Synergy excess came to 9.4. In addition, in the experiment on LNCaP cells, the “Synergy region (synergy score)” value is 8.1.
For the molecule `C[C@@H](Nc1cc(F)cc(F)c1)c1cc(C(=O)N(C)C)cc2c(=O)cc(N3CCOCC3)oc12` [AZD8186], in the experiment with VCaP cells, the Additivity score is listed as 2.1, the Antagonism score is listed as 0, the Maximum synergy is 11 and the Synergy excess is recorded as 2.9. Besides, in the experiment with VCaP cells, the “Synergy region (synergy score)” value is on record as 0.39. Further, in the experiment on 22RV1 cells, the Additivity score was determined as 7.6, the Antagonism score came out at 0, the Maximum synergy came to 24 and the Synergy excess is 2.4. For the same molecule, the “Synergy region (synergy score)” value in the experiment with 22RV1 cells stood at 1.6. In the experiment with LNCaP cells, the Additivity score stood at 10, the Antagonism score was 0, the Maximum synergy is recorded as 12 and the Synergy excess is 4.4. Moreover, the “Synergy region (synergy score)” value with LNCaP cells is 1.5.
Take `CC(C)NC[C@@H](C(=O)N1CCN(c2ncnc3c2[C@H](C)C[C@H]3O)CC1)c1ccc(Cl)cc1` [GDC-0068, ipatasertib]: in the experiment on VCaP cells, the Additivity score stood at 7.5, the Antagonism score was found to be 0, the Maximum synergy is 14 and the Synergy excess is reported as 3.8. Moreover, the “Synergy region (synergy score)” value in the experiment with VCaP cells was 1.5. Besides, in the experiment on 22RV1 cells, the Additivity score is reported as 7.5, the Antagonism score turned out to be 0, the Maximum synergy came out at 23 and the Synergy excess was 2.4. Also, the “Synergy region (synergy score)” value with 22RV1 cells amounted to 2.1. Further, in the experiment on LNCaP cells, the Additivity score is 13, the Antagonism score came out at 0, the Maximum synergy worked out at 23 and the Synergy excess was determined as 7.6. For the same molecule, in the experiment with LNCaP cells, the “Synergy region (synergy score)” value was found to be 5.6.
Take `N#CC[C@H](C1CCCC1)n1cc(-c2ncnc3[nH]ccc23)cn1` [Ruxolitinib, ruxolitinib]: in the experiment with VCaP cells, the Additivity score was determined as 5.2 and the Antagonism score stood at 0.
Regarding `CNC(=O)c1cc(Oc2ccc(NC(=O)Nc3ccc(Cl)c(C(F)(F)F)c3)cc2)ccn1` [Sorafenib, sorafenib], in the experiment with 22RV1 cells, the Additivity score worked out at 2.6, the Antagonism score was 0, the Maximum synergy is recorded as 20 and the “Synergy region (synergy score)” value was determined as 0.65.
Take `CCN(c1cc(-c2ccc(CN3CCOCC3)cc2)cc(C(=O)NCc2c(C)cc(C)[nH]c2=O)c1C)C1CCOCC1` [Tazemetostat, tazemetostat]: in the experiment on LNCaP cells, the Additivity score was found to be 6.1, the Antagonism score was determined as 0, the Maximum synergy was 20 and the Synergy excess was found to be 5.3. Also, in the experiment with LNCaP cells, the “Synergy region (synergy score)” value was found to be 4.1.
